From patent US20130266590A1, “DIMERIC IAP INHIBITORS” (NOVARTIS AG, priority 2010, published 2013)
Where a name gives a salt, the structure may show the parent alone.

Tests used:
Panc3.27 tumor cells = assay: Cellular assay: Panc3.27 tumor cell proliferation (Cell Titer Glo); format: cell-based; conditions: Panc3.27 cells, 4000 cells per well, 72 hour growth, CTG readout, percent control growth; read-out: PANC proliferation IC50
Method: (§1) The compounds described herein above were profiled using a cellular assay (using Panc3.27 tumor cells) and a binding assay to determine the competition between the compounds of the present invention and smac7mer peptide for XIAP-BIR3 and cIAP1-BIR3 binding groove occupancy.
Cellular Assay—Treatment of Panc3.27 Tumor Cells with Dimeric IAP Antagonists
On day one adherent Panc3.27 cells are plated into two 96-well, clear, flat bottom plates. All wells in row A contain 90 uL of media. All wells in rows B-G contain a total volume of 90 uL per well and 4000 cells per well for Panc3.27 cell lines. Plates are then incubated overnight for 18 hours at 37° C., 5% CO2.
On day two cells are treated with the compounds of formula M-L-M′. Treatments are done in triplicate. The compounds are first serially diluted in DMSO and then added to media giving a final concentration of 0.2% DMSO when added to cells. Cells are treated with 10 uL of serially diluted compounds of formula M-L-M′ at a final concentration of 1000 nM, 200 nM, 40 nM, 8 nM, 1.6 nM, 0.32 nM, 0.06 nM, 0.013 nM, 0.0026 nM, and one untreated well. Plate two is used as a time zero plate.
To measure cell viability 50 uL of Cell Titer Glo (CTG) solution is added to row A, media only and B, cells and media. CTG is purchased from Promega Corporation catalog number G7573. The solution is prepared according to manufacturer's instructions. CTG measures the amount of ATP released from viable cells that is proportional to the number of cells in each well. After incubating for ten minutes with CTG plates are measured on a luminescent reader at 700 nm wavelength. Read time is approximately one second per well for a 96-well plate.
On day five 50 uL of CTG is added to plate one, rows A-G, incubated for 10 minutes at room temperature and read on a luminescent reader. Raw data is adjusted to account for the time zero plate as well as background noise. Triplicate values are averaged and percent control growth is calculated. Percent control growth is calculated using the following logical test: If well read data point (a) is greater than time zero data point (t=0), then 100*[(a)−(t=0)]/[(72 hour total growth)−(t=0)], OR 100*[(a)−(t=0)]/[(t=0)]. Data is represented by line graph with the concentration of compound on the x axis and percent control growth on the y axis.

XIAP-BIR3 = XIAP-BIR3 (Homo sapiens, UniProt P98170); assay: Biacore SPR solution competition binding assay vs smac7mer peptide, XIAP-BIR3; conditions: SPR competition with captured smac7mer peptide; 100 nM XIAP-BIR3; 25° C.; read-out: XIAP-BIR3 Binding Biacore (Competitive) EC50
Chain of XIAP-BIR3 (P98170 241-356 limits assumed): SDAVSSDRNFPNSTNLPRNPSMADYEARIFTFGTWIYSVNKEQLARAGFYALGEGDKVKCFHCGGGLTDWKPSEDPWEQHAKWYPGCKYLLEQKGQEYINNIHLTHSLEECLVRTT
Excerpt: as §1
(§2) The present method includes utility of a Surface plasmon resonance (SPR)-based biosensor (Biacore™, GE Healthcare, Uppsala, Sweden) to examine competition between the compounds of the present invention and smac7mer peptide for XIAP-BIR3 and cIAP1-BIR3 binding groove occupancy.
(§3) Biacore™ utilizes the phenomenon of surface plasmon resonance (SPR) to detect and measure binding interactions. In a typical Biacore experiment, one of the interacting molecules is immobilized on a flexible dextran matrix while the interacting partner is flowed over the derivatized surface. A binding interaction results in an increase in mass on the sensor surface and a corresponding direct change in the refractive index of the medium in the vicinity of the sensor surface. Changes in refractive index or signal are recorded in resonance units (R.U.) Signal changes due to association and dissociation of complexes are monitored in a non-invasive manner, continuously and in real-time, the results of which are reported in the form of a sensorgram.
(§4) Biacore™ T100 (GE Healthcare, Uppsala, Sweden) was used to conduct all experiments reported herein. Sensor surface preparation and interaction analyses were performed at 25° C. Buffer and Biacore reagents were purchased from GE Healthcare. Running buffer containing 10 mM Hepes, pH7.4, 150 mM sodium chloride, 1.25 mM Dithiothreitol, 2% Dimethyl sulfoxide and 0.05% polysorbate 20 was utilized throughout all experiments.
(§5) Biotinylated smac7mer peptide was diluted to 10 nM in running buffer and captured onto a sensor surface pre-derivatized with streptavidin (sensor chip SA) towards peptide surface densities in the range 40-100 R.U. Peptide captured surfaces were blocked with 500 μM PEO2-Biotin (Thermo Scientific).
(§6) Interaction analyses were performed by first equilibrating each compound within a six point seven fold compound dilution series in the range 1 μM to 0.06 nM with either 100 nM XIAP-BIR3 or 6 nM cIAP1-BIR3 for at least one hour during instrument start-up procedures. Protein compound mixtures were then injected over reference and smac7mer peptide surfaces in series for 60 seconds at a flow-rate of 60 μL/min. Surface regeneration was performed at the end of each analysis cycle by a 30 second injection of 10 mM Glycine, pH 2.5, 1M Sodium Chloride, 0.05% polysorbate 20. Additionally, control compound samples and control XIAP-BIR3 or cIAP1-BIR3 samples were prepared and run at regular intervals to monitor surface and assay performance.
(§7) Data analyses were carried out using Biacore™ T100 evaluation software v2.0 to validate assay quality. Binding level report points were plotted versus logarithmic compound concentration values and analyzed in Graphpad prism 5 via non-linear regression using a one-site competition model. EC50 values were generated and used as a measure of inhibitor potency.

cIAP1-BIR3 = cIAP1-BIR3 (Homo sapiens, UniProt Q13490); assay: Biacore SPR solution competition binding assay vs smac7mer peptide, cIAP1-BIR3; conditions: SPR competition with captured smac7mer peptide; 6 nM cIAP1-BIR3; 25° C.; read-out: CIAP-BIR3 Binding Biacore (Competitive) EC50
Chain of cIAP1-BIR3 (Q13490 253-363 limits assumed): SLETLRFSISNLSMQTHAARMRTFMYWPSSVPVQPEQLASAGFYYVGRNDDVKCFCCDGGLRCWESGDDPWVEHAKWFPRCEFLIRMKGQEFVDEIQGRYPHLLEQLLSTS
Excerpt: as §1, §2, §3, §4, §5, §6, §7

- IC50 (Panc3.27 tumor cells): 0.0026 to 0.0084 nM
- EC50 (XIAP-BIR3): 126 to 127 nM
- EC50 (cIAP1-BIR3): 0.86 to 0.88 nM
Compound: CN[C@@H](C)C(=O)N[C@H](C(=O)N1CCC[C@H]1c1cncc(-c2ccc(F)cc2CNC(=O)c2ccc(-c3ccc(C(=O)NCc4cc(F)ccc4-c4cncc([C@@H]5CCCN5C(=O)[C@@H](NC(=O)[C@H](C)NC)C5CCCCC5)c4)cc3)cc2)c1)C1CCCCC1 [Example 3A, N4,N4′-bis(2-(5-((S)-1-(S)-2-cyclohexyl-2-((S)-2-(methylamino)-propanamido)acetyl)pyrrolidin-2-yl)pyridin-3-yl)-5-fluorobenzyl)biphenyl-4,4′-dicarboxamide, trifluoroacetate]
